Data reported in ChEMBL document CHEMBL1201862, “PubChem BioAssay data set” (2004).
Calls of active or inactive are those of the source.

Legend:
[1] = target: T1, Heat shock factor protein 1 (Mus musculus, UniProt P38532); test: decrease of HSF1-responsive luciferase luminescence – cell-based, NIH3T3, dose retest, confirmation (AID 2382); type: functional;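 note: NIH3T3 fibroblasts with HSF1-driven luciferase reporter stressed by proteasome inhibitor MG132; luminescence from HSF1-driven luciferase expression after 8 hours of MG132 stress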
T1 sequence (P38532 whole entry): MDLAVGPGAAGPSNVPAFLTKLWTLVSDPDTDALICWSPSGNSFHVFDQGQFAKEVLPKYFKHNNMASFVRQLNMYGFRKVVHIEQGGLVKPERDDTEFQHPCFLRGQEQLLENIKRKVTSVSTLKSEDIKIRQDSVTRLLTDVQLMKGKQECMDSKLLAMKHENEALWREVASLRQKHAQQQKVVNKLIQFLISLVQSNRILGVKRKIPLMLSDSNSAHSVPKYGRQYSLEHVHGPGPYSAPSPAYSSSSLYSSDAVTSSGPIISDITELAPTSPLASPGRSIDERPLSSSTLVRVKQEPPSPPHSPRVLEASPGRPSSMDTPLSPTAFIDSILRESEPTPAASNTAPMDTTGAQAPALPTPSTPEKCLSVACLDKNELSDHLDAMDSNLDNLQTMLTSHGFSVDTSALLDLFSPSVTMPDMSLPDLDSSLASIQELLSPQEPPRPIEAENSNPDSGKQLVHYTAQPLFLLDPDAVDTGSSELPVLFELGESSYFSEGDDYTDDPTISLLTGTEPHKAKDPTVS

[2] = target: T2, G-protein coupled receptor 55 (Homo sapiens, UniProt Q9Y2T6); test: selective activators of receptor GPR55 – imaging, U2OS cells, beta-arrestin-GFP redistribution, primary screen (AID 1961); type: functional
T2 sequence (Q9Y2T6 whole entry): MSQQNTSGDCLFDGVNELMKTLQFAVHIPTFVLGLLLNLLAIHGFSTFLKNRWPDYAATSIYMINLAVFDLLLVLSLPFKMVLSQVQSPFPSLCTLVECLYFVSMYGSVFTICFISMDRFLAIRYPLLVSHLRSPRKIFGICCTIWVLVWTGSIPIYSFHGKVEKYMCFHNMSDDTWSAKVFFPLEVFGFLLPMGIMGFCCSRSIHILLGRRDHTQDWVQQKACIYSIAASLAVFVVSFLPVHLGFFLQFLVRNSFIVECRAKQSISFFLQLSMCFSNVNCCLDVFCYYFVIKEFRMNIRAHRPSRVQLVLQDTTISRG

[3] = target: T3, Cannabinoid receptor 2 (Homo sapiens, UniProt P34972); test: SAR analysis of antagonists of the Cannabinoid Receptor 2 using an Image-Based Assay - Set 2. [Related pubchem assays (depositor defined):AID1961, AID1965]; type: functional
T3 sequence (P34972 whole entry): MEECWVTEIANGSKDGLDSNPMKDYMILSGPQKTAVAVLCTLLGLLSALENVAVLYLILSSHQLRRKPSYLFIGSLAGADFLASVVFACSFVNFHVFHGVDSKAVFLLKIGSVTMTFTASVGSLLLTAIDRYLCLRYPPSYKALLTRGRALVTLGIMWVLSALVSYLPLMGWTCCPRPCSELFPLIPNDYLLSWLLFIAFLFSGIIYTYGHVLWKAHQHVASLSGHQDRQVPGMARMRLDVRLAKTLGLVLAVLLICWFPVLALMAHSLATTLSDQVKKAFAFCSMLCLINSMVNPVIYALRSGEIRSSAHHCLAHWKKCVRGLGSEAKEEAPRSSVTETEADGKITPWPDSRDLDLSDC

[4] = target: T3, Cannabinoid receptor 2; test: SAR analysis of agonists of the Cannabinoid Receptor 2 using an Image-Based Assay - Set 2. [Related pubchem assays (depositor defined):AID1961, AID1965]; type: functional
[5] = target: T2, G-protein coupled receptor 55; test: SAR analysis of selective Agonists of GPR55 using an Image-Based Assay. [Related pubchem assays (depositor defined):AID1961, AID1965]; type: functional
[6] = target: Cannabinoid receptor 1 (Homo sapiens, UniProt P21554); test: SAR analysis of antagonists of the Cannabinoid Receptor 1 using an Image-Based Assay. [Related pubchem assays (depositor defined):AID1961, AID1965]; type: functional
Sequence of Cannabinoid receptor 1 (P21554 whole entry): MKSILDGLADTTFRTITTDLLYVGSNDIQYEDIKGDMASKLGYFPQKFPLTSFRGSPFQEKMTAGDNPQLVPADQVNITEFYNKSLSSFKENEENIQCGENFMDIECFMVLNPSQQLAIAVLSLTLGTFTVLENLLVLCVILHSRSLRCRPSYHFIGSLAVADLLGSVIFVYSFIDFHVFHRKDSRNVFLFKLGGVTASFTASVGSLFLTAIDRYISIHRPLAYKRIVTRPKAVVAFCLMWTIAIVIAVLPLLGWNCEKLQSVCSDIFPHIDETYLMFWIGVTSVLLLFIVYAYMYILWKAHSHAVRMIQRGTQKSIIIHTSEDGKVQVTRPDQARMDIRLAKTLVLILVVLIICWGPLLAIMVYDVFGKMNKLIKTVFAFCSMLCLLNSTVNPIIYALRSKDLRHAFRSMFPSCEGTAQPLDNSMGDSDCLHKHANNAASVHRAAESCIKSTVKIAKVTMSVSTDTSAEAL

[7] = target: T4, Cysteine protease ATG4B (Homo sapiens, UniProt Q9Y4P1); type: functional;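 note: Fluorescence-based dose-response confirmation assay measuring inhibition of ATG4B activity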
T4 sequence (Q9Y4P1 whole entry): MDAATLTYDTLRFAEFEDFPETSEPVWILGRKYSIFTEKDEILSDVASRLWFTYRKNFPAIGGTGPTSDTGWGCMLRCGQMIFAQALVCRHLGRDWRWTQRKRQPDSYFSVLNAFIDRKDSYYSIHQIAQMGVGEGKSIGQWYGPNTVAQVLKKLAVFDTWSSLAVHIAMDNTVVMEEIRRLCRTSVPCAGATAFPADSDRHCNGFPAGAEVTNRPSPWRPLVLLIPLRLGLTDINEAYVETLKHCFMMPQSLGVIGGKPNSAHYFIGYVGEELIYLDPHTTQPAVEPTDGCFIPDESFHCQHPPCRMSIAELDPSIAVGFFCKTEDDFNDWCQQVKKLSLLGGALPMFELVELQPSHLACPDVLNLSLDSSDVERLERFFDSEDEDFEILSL

[8] = target: Phospholipase A2 (Homo sapiens, UniProt P04054); type: functional;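 note: confirmatory dose-response counterscreen on phospholipase A2, testing hits that came from an ultra-high-throughput screen for ATG4B inhibitors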
Sequence of Phospholipase A2 (P04054 whole entry): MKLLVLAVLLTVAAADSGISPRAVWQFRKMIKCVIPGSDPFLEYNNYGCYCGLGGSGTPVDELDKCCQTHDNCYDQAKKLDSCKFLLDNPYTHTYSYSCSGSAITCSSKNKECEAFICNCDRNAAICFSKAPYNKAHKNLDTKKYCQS

[9] = target: Exodeoxyribonuclease V (Escherichia coli (strain K12), UniProt P04993+P07648+P08394); test: RecBCD inhibition via phage-restricted bacterial growth – absorbance, V66 E. coli, mutant T4 phage, counter-screen for AddAB inhibitor project, dose response (AID 492957); type: functional, cell-based, Escherichia coli str. K-12 substr. MG1655
Sequence of Exodeoxyribonuclease V (P04993 whole entry): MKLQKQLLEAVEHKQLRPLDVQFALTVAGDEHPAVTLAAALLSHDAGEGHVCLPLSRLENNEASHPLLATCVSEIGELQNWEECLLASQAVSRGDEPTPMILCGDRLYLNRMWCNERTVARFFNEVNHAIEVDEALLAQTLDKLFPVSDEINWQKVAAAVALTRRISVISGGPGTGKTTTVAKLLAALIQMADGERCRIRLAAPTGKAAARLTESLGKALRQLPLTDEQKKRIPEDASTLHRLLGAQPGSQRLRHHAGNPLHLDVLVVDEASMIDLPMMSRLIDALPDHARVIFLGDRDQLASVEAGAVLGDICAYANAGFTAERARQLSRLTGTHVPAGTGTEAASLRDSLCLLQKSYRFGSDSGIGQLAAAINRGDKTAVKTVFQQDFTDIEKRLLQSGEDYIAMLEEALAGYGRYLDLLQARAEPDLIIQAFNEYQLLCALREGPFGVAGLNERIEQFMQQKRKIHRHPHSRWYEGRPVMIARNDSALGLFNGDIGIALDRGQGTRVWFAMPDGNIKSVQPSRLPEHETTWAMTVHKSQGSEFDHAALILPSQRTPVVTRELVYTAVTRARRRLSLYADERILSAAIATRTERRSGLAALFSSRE
Sequence of Exodeoxyribonuclease V (P07648 whole entry): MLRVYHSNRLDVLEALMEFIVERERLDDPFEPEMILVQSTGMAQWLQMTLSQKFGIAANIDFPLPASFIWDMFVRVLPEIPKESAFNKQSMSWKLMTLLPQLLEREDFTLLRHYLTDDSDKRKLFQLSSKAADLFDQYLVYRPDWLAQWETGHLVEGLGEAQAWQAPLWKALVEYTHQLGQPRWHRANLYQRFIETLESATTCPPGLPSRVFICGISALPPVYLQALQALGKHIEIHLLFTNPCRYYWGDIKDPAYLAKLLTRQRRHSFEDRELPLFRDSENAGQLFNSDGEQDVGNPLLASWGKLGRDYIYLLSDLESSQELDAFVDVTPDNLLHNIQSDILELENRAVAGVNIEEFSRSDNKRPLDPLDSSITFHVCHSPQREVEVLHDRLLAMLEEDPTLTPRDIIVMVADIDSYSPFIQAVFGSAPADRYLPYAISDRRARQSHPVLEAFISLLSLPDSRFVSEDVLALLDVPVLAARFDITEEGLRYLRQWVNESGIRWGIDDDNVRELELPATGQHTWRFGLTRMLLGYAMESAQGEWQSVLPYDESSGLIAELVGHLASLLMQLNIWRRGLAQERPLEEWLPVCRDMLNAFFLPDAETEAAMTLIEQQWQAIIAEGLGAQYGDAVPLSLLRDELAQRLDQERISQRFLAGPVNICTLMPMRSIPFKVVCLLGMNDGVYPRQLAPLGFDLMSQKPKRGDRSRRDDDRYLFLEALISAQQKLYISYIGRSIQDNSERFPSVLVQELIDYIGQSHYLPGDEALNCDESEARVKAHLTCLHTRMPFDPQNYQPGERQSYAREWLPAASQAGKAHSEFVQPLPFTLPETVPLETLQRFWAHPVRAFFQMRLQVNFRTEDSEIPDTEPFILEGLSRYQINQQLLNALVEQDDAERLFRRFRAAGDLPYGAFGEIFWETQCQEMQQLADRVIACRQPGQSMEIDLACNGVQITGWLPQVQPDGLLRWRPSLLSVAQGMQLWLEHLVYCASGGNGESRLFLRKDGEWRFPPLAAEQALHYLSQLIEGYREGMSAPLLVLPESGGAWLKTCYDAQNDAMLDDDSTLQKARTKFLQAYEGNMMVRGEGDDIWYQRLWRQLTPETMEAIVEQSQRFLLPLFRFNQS
Sequence of Exodeoxyribonuclease V (P08394 whole entry): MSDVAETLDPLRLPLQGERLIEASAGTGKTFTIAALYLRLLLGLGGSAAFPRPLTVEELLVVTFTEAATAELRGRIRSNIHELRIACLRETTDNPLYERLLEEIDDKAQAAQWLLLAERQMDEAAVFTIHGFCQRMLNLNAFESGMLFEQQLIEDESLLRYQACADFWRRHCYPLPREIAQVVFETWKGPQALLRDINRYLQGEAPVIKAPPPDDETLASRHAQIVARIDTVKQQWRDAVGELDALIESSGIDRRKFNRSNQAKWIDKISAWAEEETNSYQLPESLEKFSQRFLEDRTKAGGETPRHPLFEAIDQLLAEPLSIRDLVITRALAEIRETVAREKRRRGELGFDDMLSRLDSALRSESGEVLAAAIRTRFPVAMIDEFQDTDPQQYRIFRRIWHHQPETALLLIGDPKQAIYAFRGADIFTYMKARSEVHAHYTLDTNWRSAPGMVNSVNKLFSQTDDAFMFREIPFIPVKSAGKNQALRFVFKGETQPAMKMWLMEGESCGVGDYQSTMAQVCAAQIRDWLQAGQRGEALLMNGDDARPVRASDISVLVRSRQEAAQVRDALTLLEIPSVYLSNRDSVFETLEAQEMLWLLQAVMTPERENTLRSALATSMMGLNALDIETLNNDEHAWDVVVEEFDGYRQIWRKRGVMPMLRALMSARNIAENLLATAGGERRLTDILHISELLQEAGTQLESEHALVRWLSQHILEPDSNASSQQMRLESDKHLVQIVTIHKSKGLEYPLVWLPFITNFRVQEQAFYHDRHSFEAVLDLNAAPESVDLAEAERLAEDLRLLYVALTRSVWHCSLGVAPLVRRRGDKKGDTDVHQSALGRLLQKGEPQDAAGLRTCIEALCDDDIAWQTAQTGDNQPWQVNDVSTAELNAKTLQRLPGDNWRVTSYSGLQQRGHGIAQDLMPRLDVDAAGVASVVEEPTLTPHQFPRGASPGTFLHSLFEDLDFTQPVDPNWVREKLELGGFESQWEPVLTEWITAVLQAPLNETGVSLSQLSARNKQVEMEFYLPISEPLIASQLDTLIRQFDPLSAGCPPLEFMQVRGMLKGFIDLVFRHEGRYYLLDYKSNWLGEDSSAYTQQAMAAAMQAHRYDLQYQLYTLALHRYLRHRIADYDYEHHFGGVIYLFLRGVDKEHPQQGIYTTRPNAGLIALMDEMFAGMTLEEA

[10] = Counterscreen for AddAB inhibitors: absorbance-based bacterial cell-based high throughput dose response assay for inhibitors of bacterial viability. [Related pubchem assays (depositor defined):AID435030, AID449728, AID449731, AID488942, AID488955, AID488956]; type: functional
[11] = test system: H9c2; test: cells; type: functional, cell-based; details: Rattus norvegicus, H9c2, Myocardium;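 note: confirmatory concentration-response retest of ultra-high-throughput screening hits for modulation of myocardial damage; cell death induced by hydrogen peroxide oxidative stress; compound pretreatment for 60 min then peroxide exposure for 2 h; potency is for protecting the cells against peroxide damage rather than for killing them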

| EC50 [1] | EC50 [2] | IC50 [3] | EC50 [4] | EC50 [5] | IC50 [6] | IC50 [7] | IC50 [8] | SMILES | IC50 [9] | IC50 [10] | IC50 [11] |
| --- | --- | --- | --- | --- | --- | --- | --- | --- | --- | --- | --- |
| > 195 µM (not active) | 0.806 µM (active) | > 32 µM (inactive) | > 32 µM (inactive) | 0.865 µM (active) | > 32 µM (inactive) | 14.7 µM (active) | 10 µM (active) | COc1cc2c(cc1NC(=O)C(C)Sc1ccc(NC(C)=O)cc1)oc1ccccc12 (stereo unspecified) |  |  |  |
|  |  |  |  |  |  |  |  | O=C1c2ccccc2NC(c2ccc(-c3cccc([N+](=O)[O-])c3)o2)N1O (stereo unspecified) | > 119 µM (inactive) | > 119 µM (inactive) | 11.9 µM (active) |
